Laboratory results from PubChem BioAssay (NCI).
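The concentration for 50% growth inhibition is given as GI50. TGI marks complete inhibition of growth.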

Legend:
Test in all cases: inhibition of tumour cell growth, NCI panel, 384-well format
786-0 renal = test system: 786-0 renal
A498 renal = test system: A498 renal
CAKI-1 renal = test system: CAKI-1 renal
DU-145 prostate = test system: DU-145 prostate
HL-60(TB) leukemia = test system: HL-60(TB) leukemia
HOP-92 NSCLC = test system: HOP-92 NSCLC
HS 578T breast = test system: HS 578T breast
MOLT-4 leukemia = test system: MOLT-4 leukemia
NCI-H23 lung = test system: NCI-H23 lung
NCI-H322M lung = test system: NCI-H322M lung
RXF 393 renal = test system: RXF 393 renal
SN12C renal = test system: SN12C renal
U251 glioblastoma = test system: U251 glioblastoma

CCCS(=O)(=O)Nc1ccc(F)c(C(=O)c2c[nH]c3ncc(-c4ccc(Cl)cc4)cc23)c1F was tested, and the GI50 (786-0 renal) was 4.03 µM, the TGI (786-0 renal) was 13.5 µM and the GI50 (A498 renal) was 2960 nM. For the same compound, the TGI (A498 renal) was 9.4 µM, the GI50 (CAKI-1 renal) was 3.69 µM and the TGI (CAKI-1 renal) was 10.5 µM. It also gave a GI50 (DU-145 prostate) of 5.88 µM, a TGI (DU-145 prostate) of 18.6 µM and a GI50 (HL-60(TB) leukemia) of 902 nM. For the same compound, the TGI (HL-60(TB) leukemia) was 5.03 µM, the GI50 (HOP-92 NSCLC) was 4.98 µM and the TGI (HOP-92 NSCLC) was 12.1 µM. The GI50 (HS 578T breast) was 2520 nM, the TGI (HS 578T breast) was 6.2 µM and the GI50 (MOLT-4 leukemia) was 3.23 µM. For the same compound, the TGI (MOLT-4 leukemia) was 8.74 µM, the GI50 (NCI-H23 lung) was 4.19 µM and the TGI (NCI-H23 lung) was 13.2 µM. For the same compound, the GI50 (NCI-H322M lung) was 4.65 µM, the TGI (NCI-H322M lung) was 16 µM and the GI50 (RXF 393 renal) was 2360 nM. For the same compound, the TGI (RXF 393 renal) was 6.45 µM, the GI50 (SN12C renal) was 8.1 µM and the TGI (SN12C renal) was 22.5 µM. It also gave a GI50 (U251 glioblastoma) of 4.35 µM and a TGI (U251 glioblastoma) of 9.9 µM.
